From US20250051300A1, “GRAM-NEGATIVE SPECIFIC ANTIBIOTICS SPARING EFFECT ON GUT MICROBIOME” (THE BOARD OF TRUSTEES OF THE UNIVERSITY OF ILLINOIS, priority 2021, published 2025) come the findings set out here.

Read-outs that look alike come from different tables or passages of the source. A value given as a limit tells only on which side of the number the result lay.

By MIC is commonly meant the lowest concentration found to suppress growth. High values mean a less susceptible organism, low ones a more susceptible organism. Broadly, the IC50 is the concentration that gives 50% inhibition. In general, Cmax refers to the maximum level reached in the sampled fluid or tissue. For orientation: half-life means the time in which the quantity being followed falls by half. A lower half-life goes with rapid decline. The term AUC denotes concentration integrated over time. The low end stands for less exposure, the high end for more exposure.

The test system of one series is Bifidobacterium longum. Description: MIC, gut commensal bacteria, micro-dilution broth. (In broth dilution the organism is exposed to a series of concentrations in liquid medium.)
Series [1] has as its system Stenotrophomonas maltophilia. Description: MIC, gut commensal bacteria, micro-dilution broth.
Another series has as its system E. cloacae AR0163. Description: Acute pneumonia bacterial burden model. The class given is in vivo, CD-1 mice. Conditions: colistin-resistant E. cloacae, 100 mg/kg IP (FIG. 7E).
In the next series the test system is Blautia producta. Briefly: MIC, gut commensal bacteria, micro-dilution broth.
A further series has as its system HFF-1 cells. Briefly: Cell viability (Alamar Blue), mammalian cell line. Conditions: Homo sapiens, HFF-1, 24 h, read-out: IC50, mammalian cell lines. The class given is cell-based. Here is the method: (§1) Cell culture. HFF-1 cells (newborn) were obtained from the ATCC. […] A-549 cells (adult) were obtained from the ATCC. […] All cells were cultured at 37° C. under a 5% CO2 environment. Cell lines were authenticated externally by a commercial vendor and inspected visually in house. Cell lines were not tested for Mycoplasma contamination. The media was prepared by the University of Illinois School of Chemical Sciences Cell Media Facility. Cell viability. HFF-1 cells were seeded (8,000 cells/well) in a 96-well plate (Greiner Bio-One; catalogue number: 655180) and allowed to attach overnight. Cells were treated with investigational compounds in dimethyl sulfoxide (DMSO). […] Raptinal (100 μM) was used as a dead control. On each plate, at least three technical replicates per compound were performed. After 24 h post-treatment, cell viability was assessed using the Alamar Blue method. Stock Alamar Blue solution (10 μL 440 μM resazurin (Sigma-Aldrich; catalogue number: R7017) in sterile 1×PBS) was added to each well, and the plate was incubated for 3-4 h. Conversion of Alamar Blue was measured with a plate reader (SpectraMax M3; Molecular Devices) by fluorescence (excitation wavelength: 555 nm; emission wavelength: 585 nm; cutoff 570 nm; autogain). Percentage death was determined by normalizing to DMSO-treated cells and Raptinal-treated cells. […]
(The colour change of resazurin is a common sign of viable cells or microbes.)

The subject of the next series is A-549 cells. Briefly: Cell viability (Alamar Blue), mammalian cell line. The format is cell-based. The conditions noted are these: Homo sapiens, A549, read-out: IC50, mammalian cell lines (converted). As to the method:
as §1

The nature of series [2]: Pharmacokinetic assessment in mice (serum, LC-MS/MS). The class given is in vivo, C57BL/6 mice. The conditions noted are these: for Cmax / half-life / AUC: female, 200 mg/kg single dose; for Cmax / half-life: C57BL/6, mouse, serum; for AUC: C57BL/6, mouse serum. Here is the method: C57BL/6 mice were treated with lolamcyin at a single dose of 200 mg/kg via IP injection (formulated in 50% DMSO and 50% PEG400) or oral gavage (formulated in 20% DMSO, 30% water, and 50% PEG400) with three mice per time point (0, 15, 30, 45, 60, 120, 240, 480, 960, and 1,440 min). Mice were then sacrificed and serum concentrations of lolamycin were determined by liquid chromatography-tandem mass spectrometry (LC-MS/MS). Oral bioavailability was calculated by comparing the concentration of lolamycin in mouse serum levels resulting from these two administration routes.
Pharmacokinetic Assessment of compound 2 and lolamycin. The protocol was approved by the Institutional Animal Care and Use Committee (IACUC) at the University of Illinois at Urbana-Champaign. In these studies, 10- to 12-week-old female C57BL/6 mice purchased from Charles River Laboratories were used. Mice were randomly chosen and divided into subsequent groups. No additional randomization was used to allocate the experimental groups; blinding was not performed for subsequent quantitation. First, the pharmacokinetic assessment via intraperitoneal injection was determined. Compound 2 and lolamycin were formulated in 50% DMSO and 50% PEG400. Mice were treated with compound 2 (200 mg/kg) or lolamycin (200 mg/kg) via intraperitoneal injection, with three mice per time point (0, 15, 30, 45, 60, 120, 240, 480, 960, and 1,440 min). At the specified time points, mice were killed, blood was collected and centrifuged, and the serum was frozen at −80° C. until analysis. The proteins in a 10-μL aliquot of serum were precipitated by the addition of 50 μL methanol with the addition of 10 μL internal standard. The sample was then vortexed and centrifuged to remove the proteins. Supernatants were analyzed with the QTRAP 5500 LC/MS/MS system (Sciex) in the Metabolomics Laboratory of the Roy J. Carver Biotechnology Center, University of Illinois at Urbana-Champaign.
Next, the pharmacokinetic assessment via oral gavage was determined. Lolamycin was formulated in 20% DMSO, 30% water, and 50% PEG400. Mice were treated with lolamycin (200 mg/kg) via oral gavage, with three mice per time point (0, 15, 30, 45, 60, 120, 240, 480, 960, and 1,440 min). At the specified time points, mice were killed, blood was collected and centrifuged, and the serum was frozen at −80° C. until analysis similar to before. Software Analyst 1.6.2 was used for data acquisition and analysis. The 1200 Series HPLC system (Agilent Technologies) includes a degasser, an autosampler and a binary pump. The liquid chromatography separation was performed on an Agilent Zorbax SB-Aq column (4.6×50 mm; 5 μm) with mobile phase A (0.1% formic acid in water) and mobile phase B (0.1% formic acid in acetonitrile). The autosampler was set at 10° C. The injection volume was 5 μL. Mass spectra were acquired using electrospray ionization with a voltage of 5,500 V. The source temperature was 450° C. The curtain gas, ion source gas 1 and ion source gas 2 were […], respectively. Multiple reaction monitoring was used for quantitation with external standard. The limit of quantitation of (S/N=10) was 1 nM. Pharmacokinetic parameters were calculated with a one-compartment model using a nonlinear regression program (Phoenix WinNonlin Version 8.1; Certara USA).

For series [3], the system named is Bacteroides cellulosilyticus. Description: MIC, gut commensal bacteria, micro-dilution broth.
Another series deals with K. pneumoniae BAA-1705. Briefly: Bacterial sepsis survival model. The format is in vivo, CD-1 mice. The conditions noted are these: carbapenem-resistant K. pneumoniae, 200 mg/kg IP once daily for 3 days (FIG. 7D).
In another series the test system is Bacteroides fragilis. Briefly: MIC, gut commensal bacteria, micro-dilution broth.

As to `Cc1cc(-c2c[nH]nc2-c2cccc(OCc3cccc(C#N)c3)c2)cc(C)n1` [Compound 12, 3-((3-(4-(2,6-dimethylpyridin-4-yl)-1H-pyrazol-3-yl)phenoxy)methyl)benzonitrile], the MIC against Bifidobacterium longum (Bifidobacterium longum ATCC BAA-999, BHI-ych, listed as Lolamycin) is more than 128 µg/mL; with Bifidobacterium longum (Bifidobacterium longum, ATCCBAA999), more than 128 µg/mL; in series [1] (Stenotrophomonas maltophilia ATCC 13637, BHI-ych, listed as Lolamycin), more than 128 µg/mL; in series [1] (Stenotrophomonas maltophilia, ATCC13637), more than 128 µg/mL; against Blautia producta, more than 128 µg/mL; in the series on Blautia producta (Blautia producta, ATCC27340) it was more than 128 µg/mL. For the same molecule, the MIC in series [3] (Bacteroides cellulosilyticus) is more than 128 µg/mL; in series [3] (Bacteroides cellulosilyticus KLE 2342, BHI-ych, listed as Lolamycin), more than 128 µg/mL; with Bacteroides fragilis (Bacteroides fragilis ATCC 25285, BHI-ych, listed as Lolamycin) it was more than 128 µg/mL; with Bacteroides fragilis (Bacteroides fragilis, ATCC25285), more than 128 µg/mL. Moreover, the “efficacy, bacterial burden” value with E. cloacae AR0163 was “showed the efficacy”. Besides, the IC50 was 85.3 ± 11.8 µM with HFF-1 cells and 41.9 µM in the series with A-549 cells. Moreover, the Cmax in [2] (IP injection) came out at 38.2 µM; in series [2] (oral gavage) it was 26.4 µM. Moreover, the half-life in [2] (IP injection) was found to be 2.07 h; in series [2] (oral gavage), 1.1 h. Besides, the results for the AUC in series [2] (IP injection) and in series [2] (oral gavage) were 43400 ng·h/mL and 20500 ng·h/mL, respectively. Besides, in series [2] (mice, oral vs IP, 200 mg/kg), the Oral bioavailability entry was “significant oral bioavailability”. The “efficacy, survival” value with K. pneumoniae BAA-1705 is recorded as “showed the efficacy”.
